The record followed here is US9873690B2, “3-indol substituted derivatives, pharmaceutical compositions and methods for use” (Pfizer Inc., priority 2015, dated 2018).

As usually defined, the pIC50 is −log10 of the IC50, conventionally taken in molar units. Low values mean a high IC50, high ones a low IC50.

SMILES strings stand for the structures. pIC50: −log10 of the molar value.

The target in the assay is T1, hTDO2 (Homo sapiens, UniProt P48775).
T1 construct: endogenous in cells; host or cells: A172 human brain glioblastoma cells (ATCC CRL-1620)
T1 sequence (P48775 whole entry): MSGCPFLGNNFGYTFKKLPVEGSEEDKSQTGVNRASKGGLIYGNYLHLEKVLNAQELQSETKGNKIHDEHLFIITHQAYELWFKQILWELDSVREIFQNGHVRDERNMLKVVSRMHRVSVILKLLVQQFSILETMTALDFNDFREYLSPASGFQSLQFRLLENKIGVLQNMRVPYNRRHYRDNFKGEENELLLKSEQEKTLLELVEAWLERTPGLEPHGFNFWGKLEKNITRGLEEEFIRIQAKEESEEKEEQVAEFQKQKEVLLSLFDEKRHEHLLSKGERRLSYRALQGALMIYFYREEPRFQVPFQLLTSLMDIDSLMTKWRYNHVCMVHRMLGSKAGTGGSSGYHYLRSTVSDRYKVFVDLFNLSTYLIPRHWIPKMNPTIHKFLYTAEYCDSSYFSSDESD
As to the kind of experiment: Cellular assay for TDO2 activity determination in A172 cells. The settings on record: human glioblastoma A172 cells naturally expressing hTDO2; overnight incubation; kynurenine by absorbance at 480 nm. The assay is classed as cell-based. The method in brief:
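A172 glioblastoma cells endogenously expressing hTDO2, 1.25×10^4 cells/well, incubated overnight at 37 °C, 5% CO2 in IMDM with 2% FBS and ten compound concentrations. Supernatant kynurenine measured after TCA treatment and Ehrlich's reagent (4-dimethylaminobenzaldehyde) by absorbance at 480 nm against a kynurenine standard curve, then curve-fitted.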
As to `CNC(=O)CN1C(CO)c2cc(-c3c[nH]c4cc(F)ccc34)ccc2S1(=O)=O` (single isomer, unassigned; (-)) [Example 127, (−)-2-(5-(6-fluoro-1H-indol-3-yl)-3-(hydroxymethyl)-1,1-dioxidobenzo[d]isothiazol-2(3H)-yl)-N-methylacetamide], the pIC50 was 7.06.

In turn, `CC1c2cc(-c3c[nH]c4cc(F)ccc34)ccc2S(=O)(=O)N1C[C@@H](O)CO` (single isomer, unassigned) [Example 93] showed a pIC50 of 6.57. Then `CCC1NS(=O)(=O)c2ccc(-c3c[nH]c4cc(F)ccc34)cc21` (single isomer, unassigned; (-)) [Example 4, (−)-3-ethyl-5-(6-fluoro-1H-indol-3-yl)-2,3-dihydrobenzo[d]isothiazole 1,1-dioxide], with 6.57; and `CNC(=O)CN1C(C)c2cc(-c3c[nH]c4cc(F)ccc34)ccc2S1(=O)=O` (single isomer, unassigned; (+)) [Example 112, (+)-2-(5-(6-fluoro-1H-indol-3-yl)-3-methyl-1,1-dioxidobenzo[d]isothiazol-2(3H)-yl)-Nmethylacetamide], with 6.85; and `CC1(C)NS(=O)(=O)c2ccc(-c3c[nH]c4cc(F)ccc34)cc21` [Example 5, 5-(6-fluoro-1H-indol-3-yl)-3,3-dimethyl-2,3-dihydrobenzo[d]isothiazole 1,1-dioxide], with 7.02.

`CC1c2cc(-c3c[nH]c4cc(F)ccc34)ccc2S(=O)(=O)N1C1CCNCC1` (single isomer, unassigned; (-)) [Example 51, (−)-5-(6-fluoro-1H-indol-3-yl)-3-methyl-2-(piperidin-4-yl)-2,3-dihydrobenzo[d]isothiazole 1,1-dioxide] gave a pIC50 of 6.73. Then `CC1c2cc(-c3c[nH]c4cc(F)ccc34)ccc2S(=O)(=O)N1CC1CCNCC1` (single isomer, unassigned; (+)) [Example 78, (+)-5-(6-fluoro-1H-indol-3-yl)-3-methyl-2-(piperidin-4-ylmethyl)-2,3-dihydrobenzo[d]isothiazole 1,1-dioxide], with 6.76; and `CC(=O)N1CCC(N2C(C)c3cc(-c4c[nH]c5cc(F)ccc45)ccc3S2(=O)=O)C1` (single isomer, unassigned; (-)) [Example 76, (−)-1-(3-(5-(6-fluoro-1H-indol-3-yl)-3-methyl-1,1-dioxidobenzo[d]isothiazol-2(3H)-yl)pyrrolidin-1-yl)ethanone], with 7.21. `CNC(=O)C1NS(=O)(=O)c2ccc(-c3c[nH]c4cc(F)ccc34)cc21` (single isomer, unassigned; (+)) [Example 18, (+)-5-(6-fluoro-1H-indol-3-yl)-N-methyl-2,3-dihydrobenzo[d]isothiazole-3-carboxamide 1,1-dioxide] had a pIC50 of 5.30. As for `CC1c2cc(-c3c[nH]c4cc(F)ccc34)ccc2S(=O)(=O)N1CCO` (single isomer, unassigned; (-)) [Example 64, (−)-5-(6-fluoro-1H-indol-3-yl)-2-(2-hydroxyethyl)-3-methyl-2,3-dihydrobenzo[d]isothiazole 1,1-dioxide], the pIC50 was 6.49. Then `CC1c2cc(-c3c[nH]c4cc(F)ccc34)ccc2S(=O)(=O)N1CC(=O)N(C)C` (single isomer, unassigned; (-)) [Example 113, (−)-2-(5-(6-fluoro-1H-indol-3-yl)-3-methyl-1,1-dioxidobenzo[d]isothiazol-2(3H)-yl)-N,N-dimethylacetamide], with 7.23; and `CC1c2cc(-c3c[nH]c4cc(F)ccc34)ccc2S(=O)(=O)N1CCS(C)(=O)=O` (single isomer, unassigned; (-)) [Example 54, (−)-5-(6-fluoro-1H-indol-3-yl)-3-methyl-2-(2-(methylsulfonyl)ethyl)-2,3-dihydrobenzo[d]isothiazole 1,1-dioxide], with 6.63; and `CCCC1NS(=O)(=O)c2ccc(-c3c[nH]c4cc(F)ccc34)cc21` (single isomer, unassigned; (+)) [Example 6, (+)-5-(6-fluoro-1H-indol-3-yl)-3-propyl-2,3-dihydrobenzo[d]isothiazole 1,1-dioxide], with 6.44.

`O=S1(=O)c2ccc(-c3c[nH]c4cc(F)ccc34)cc2CN1CCO` [Example 33, 5-(6-fluoro-1H-indol-3-yl)-2-(2-hydroxyethyl)-2,3-dihydrobenzo[d]isothiazole 1,1-dioxide]: the pIC50 is 7.05. Then `CC(=O)N1CCC(N2C(C)c3cc(-c4c[nH]c5cc(F)ccc45)ccc3S2(=O)=O)CC1` (single isomer, unassigned; (+)) [Example 71, (+)-1-(4-(5-(6-fluoro-1H-indol-3-yl)-3-methyl-1,1-dioxidobenzo[d]isothiazol-2(3H)-yl)piperidin-1-yl)ethanone], with 6.47; and `CC(=O)N1CCC(N2C(C)c3cc(-c4c[nH]c5cc(F)ccc45)ccc3S2(=O)=O)CC1` (single isomer, unassigned; (-)) [Example 72, (−)-1-(4-(5-(6-fluoro-1H-indol-3-yl)-3-methyl-1,1-dioxidobenzo[d]isothiazol-2(3H)-yl)piperidin-1-yl)ethanone], with 7.19. With `O=S1(=O)c2ccc(-c3c[nH]c4cc(F)ccc34)cc2C(CO)N1CC(O)CO` (single isomer, unassigned; (-)) [Example 143, (−)-2-(2,3-dihydroxypropyl)-5-(6-fluoro-1H-indol-3-yl)-3-(hydroxymethyl)-2,3-dihydrobenzo[d]isothiazole 1,1-dioxide] the figure was 6.47; with `COC(=O)C1NS(=O)(=O)c2ccc(-c3c[nH]c4cc(F)ccc34)cc21` (racemic) [Example 14, methyl 5-(6-fluoro-1H-indol-3-yl)-2,3-dihydrobenzo-[d]isothiazole-3-carboxylate 1,1-dioxide], 5.09.

Regarding `O=S1(=O)c2ccc(-c3c[nH]c4cc(F)ccc34)cc2C(CO)N1CC(O)CO` (single isomer, unassigned; (+)) [Example 141, (+)-2-(2,3-dihydroxypropyl)-5-(6-fluoro-1H-indol-3-yl)-3-(hydroxymethyl)-2,3-dihydrobenzo[d]isothiazole 1,1-dioxide], the pIC50 is 6.08.

On to `Cc1cc(O)n(CCN2C(C)c3cc(-c4c[nH]c5cc(F)ccc45)ccc3S2(=O)=O)n1` (single isomer, unassigned; (-)) [Example 68, (−)-5-(6-fluoro-1H-indol-3-yl)-2-(2-(5-hydroxy-3-methyl-1H-pyrazol-1-yl)ethyl)-3-methyl-2,3-dihydrobenzo[d]isothiazole 1,1-dioxide], for which the pIC50 is 5.46. Consider `CCOC(=O)NCCN1C(C)c2cc(-c3c[nH]c4cc(F)ccc34)ccc2S1(=O)=O` (single isomer, unassigned; (+)) [Example 110, (+)-ethyl (2-(5-(6-fluoro-1H-indol-3-yl)-3-methyl-1,1-dioxidobenzo[d]isothiazol-2(3H)-yl)ethyl)carbamate], for which the pIC50 is 6.80.

Take `CC1c2cc(-c3c[nH]c4cc(F)ccc34)ccc2S(=O)(=O)N1C1CNC(=O)C1` (single isomer, unassigned; (+)) [Example 123, (+)4-(5-(6-fluoro-1H-indol-3-yl)-3-methyl-1,1-dioxidobenzo[d]isothiazol-2(3H)-yl)pyrrolidin-2-one]: the negative-log IC50 (pIC50) was 6.30. Then `COC(=O)NCC1NS(=O)(=O)c2ccc(-c3c[nH]c4cc(F)ccc34)cc21` (single isomer, unassigned; (+)) [Example 22, (+)-methyl ((5-(6-fluoro-1H-indol-3-yl)-1,1-dioxido-2,3-dihydrobenzo[d]isothiazol-3-yl)methyl)carbamate], with 6.19; and `CC1c2cc(-c3c[nH]c4cc(F)ccc34)ccc2S(=O)(=O)N1C1CCNCC1` (single isomer, unassigned; (+)) [Example 52, (+)-5-(6-fluoro-1H-indol-3-yl)-3-methyl-2-(piperidin-4-yl)-2,3-dihydrobenzo[d]isothiazole 1,1-dioxide], with 6.25. Then `CNC(=O)C(O)CN1C(C)c2cc(-c3c[nH]c4cc(F)ccc34)ccc2S1(=O)=O` (single isomer, unassigned; (+)) [Example 97, (+)-3-(5-(6-fluoro-1H-indol-3-yl)-3-methyl-1,1-dioxidobenzo[d]isothiazol-2(3H)-yl)-2-hydroxy-N-methylpropanamide], with 7.48; and `CC1c2cc(-c3c[nH]c4cc(F)ccc34)ccc2S(=O)(=O)N1CCN1CCNCC1=O` (single isomer, unassigned; (+)) [Example 66, (+)1-(2-(5-(6-fluoro-1H-indol-3-yl)-3-methyl-1,1-dioxidobenzo[d]isothiazol-2(3H)-yl)ethyl)piperazin-2-one], with 6.61; and `O=S1(=O)c2ccc(-c3c[nH]c4cc(F)ccc34)cc2CN1[C@@H]1CCOC1` [Example 38, (R)-5-(6-fluoro-1H-indol-3-yl)-2-(tetrahydrofuran-3-yl)-2,3-dihydrobenzo[d]isothiazole 1,1-dioxide], with 6.42. `CC(=O)N1CCC(N2C(C)c3cc(-c4c[nH]c5cc(F)ccc45)ccc3S2(=O)=O)C1` (single isomer, unassigned; (+)) [Example 73, (+)-1-(3-(5-(6-fluoro-1H-indol-3-yl)-3-methyl-1,1-dioxidobenzo[d]isothiazol-2(3H)-yl)pyrrolidin-1-yl)ethanone] gave a pIC50 of 6.61. Consider `CC1c2cc(-c3c[nH]c4cc(F)ccc34)ccc2S(=O)(=O)N1CC(N)=O` (single isomer, unassigned; (+)) [Example 115], for which the pIC50 is 7.06. `CC1c2cc(-c3c[nH]c4cc(F)ccc34)ccc2S(=O)(=O)N1CC1(C)COC(=O)N1` (single isomer, unassigned) [Example 87]: the pIC50 is 6.50. `CC1c2cc(-c3c[nH]c4cc(F)ccc34)ccc2S(=O)(=O)N1C[C@@]1(C)CCC(=O)N1` (single isomer, unassigned; (-)) [Example 84]: the pIC50 is 6.41.
